Reference: ChEMBL document CHEMBL5154941, “Structural Modifications of Nimodipine Lead to Novel PDE1 Inhibitors with Anti-pulmonary Fibrosis Effects” (J Med Chem, 2022)
pIC50: −log10 of the molar value. Active and inactive are the calls of the source. The rule behind the calls is not given here.

What was measured:
Rattus norvegicus [1] = assay: Antifibrotic activity in bleomycin-induced Sprague-Dawley rat pulmonary fibrosis model assessed as decrease in end-expiratory pause at 2.5 to 5 mg/kg, ip administered daily for 28 days; type: functional, organism-based; conditions: dose 2.5-5 mg/kg, time 28.0 day
Rattus norvegicus [2] = assay: Antifibrotic activity in bleomycin-induced Sprague-Dawley rat pulmonary fibrosis model assessed as increase in respiratory rate at 2.5 to 5 mg/kg, ip administered daily for 28 days; type: functional, organism-based; conditions: dose 2.5-5 mg/kg, time 28.0 day
[3] = molecular target: Dual specificity calcium/calmodulin-dependent 3',5'-cyclic nucleotide phosphodiesterase 1B (Homo sapiens, UniProt Q01064); assay: Inhibition of PDE1B (10 to 487 residues) (unknown origin) expressed in Escherichia coli BL21 using [3H]-cGMP as substrate measured for 15 mins by liquid scintillation counter method
[4] = molecular target: cGMP-dependent 3',5'-cyclic phosphodiesterase (Homo sapiens, UniProt O00408); assay: Inhibition of PDE2A (580 to 919 residues) (unknown origin) expressed in Escherichia coli BL21 using [3H]-cGMP as substrate measured for 15 mins by liquid scintillation counter method
[5] = molecular target: 3',5'-cyclic-AMP phosphodiesterase 4B (Homo sapiens, UniProt Q07343); assay: Inhibition of PDE4B2 (152 to 487 residues) (unknown origin) expressed in Escherichia coli BL21 measured for 15 mins by liquid scintillation counter method
[6] = molecular target: cGMP-specific 3',5'-cyclic phosphodiesterase (Homo sapiens, UniProt O76074); assay: Inhibition of PDE5A1 (535 to 860 residues) (unknown origin) expressed in Escherichia coli BL21 [3H]-cGMP as substrate measured for 15 mins by liquid scintillation counter method
[7] = molecular target: High affinity 3',5'-cyclic-AMP phosphodiesterase 7A (Homo sapiens, UniProt Q13946); assay: Inhibition of PDE7A1 (130-482 residues) (unknown origin) expressed in Escherichia coli BL21 using [3H]-cAMP as substrate measured for 15 mins by liquid scintillation counter method
[8] = molecular target: T1, High affinity cAMP-specific and IBMX-insensitive 3',5'-cyclic phosphodiesterase 8A (Homo sapiens, UniProt O60658); assay: Inhibition of PDE8A1 (480 to 820 residues) (unknown origin) expressed in Escherichia coli BL21 using [3H]-cAMP as substrate measured for 15 mins by liquid scintillation counter method
[9] = molecular target: cAMP and cAMP-inhibited cGMP 3',5'-cyclic phosphodiesterase 10A (Homo sapiens, UniProt Q9Y233); assay: Inhibition of PDE10A (449 to 770 residues) (unknown origin) expressed in Escherichia coli BL21 using [3H]-cAMP as substrate measured for 15 mins by liquid scintillation counter method
[10] = AUC (0 to t) in Sprague-Dawley rat at 5 mg/kg, iv; type: ADME, organism-based; set-up: dose 5 mg/kg, route iv; conditions: in vivo
[11] = AUC (0 to infinity) in Sprague-Dawley rat at 5 mg/kg, iv; type: ADME, organism-based; set-up: time infinity, dose 5 mg/kg, route iv; conditions: in vivo
[12] = Volume of distribution at steady state in Sprague-Dawley rat at 5 mg/kg, iv; type: ADME, organism-based; conditions: in vivo, read-out: Vdss
Rattus norvegicus [13] = assay: Antifibrotic activity in bleomycin-induced Sprague-Dawley rat pulmonary fibrosis model assessed as decrease in enhanced pause at 150 mg/kg, po administered daily for 28 days; type: functional, organism-based; conditions: time 28.0 day
Rattus norvegicus [14] = assay: Antifibrotic activity in bleomycin-induced Sprague-Dawley rat pulmonary fibrosis model assessed as decrease in relaxation time at 150 mg/kg, po administered daily for 28 days; type: functional, organism-based; conditions: time 28.0 day
Rattus norvegicus [15] = assay: Antifibrotic activity in bleomycin-induced Sprague-Dawley rat pulmonary fibrosis model assessed as decrease in end-expiratory pause at 150 mg/kg, po administered daily for 28 days; type: functional, organism-based; conditions: time 28.0 day
Rattus norvegicus [16] = assay: Antifibrotic activity in bleomycin-induced Sprague-Dawley rat pulmonary fibrosis model assessed as increase in respiratory rate at 150 mg/kg, po administered daily for 28 days; type: functional, organism-based; conditions: time 28.0 day
Rattus norvegicus [17] = assay: Antifibrotic activity in bleomycin-induced Sprague-Dawley rat lung fibrosis model assessed as decrease in lung fibrosis at 2.5 to 5 mg/kg, ip administered daily for 28 days by Masson's trichrome staining based analysis; type: functional, organism-based; conditions: dose 2.5-5 mg/kg, time 28.0 day
Rattus norvegicus [18] = assay: Antifibrotic activity in bleomycin-induced Sprague-Dawley rat lung fibrosis model assessed as decrease in collagen I level at 2.5 to 5 mg/kg, ip administered daily for 28 days by Western blot analysis; type: functional, organism-based; conditions: dose 2.5-5 mg/kg, time 28.0 day
Rattus norvegicus [19] = assay: Antifibrotic activity in bleomycin-induced Sprague-Dawley rat lung fibrosis model assessed as decrease in fibronectin level at 2.5 to 5 mg/kg, ip administered daily for 28 days by Western blot analysis; type: functional, organism-based; conditions: dose 2.5-5 mg/kg, time 28.0 day
Rattus norvegicus [20] = assay: Antifibrotic activity in bleomycin-induced Sprague-Dawley rat lung fibrosis model assessed as suppression of TGF-beta1 level at 2.5 to 5 mg/kg, ip administered daily for 28 days by Western blot analysis; type: functional, organism-based; conditions: dose 2.5-5 mg/kg, time 28.0 day
Rattus norvegicus [21] = assay: Antifibrotic activity in bleomycin-induced Sprague-Dawley rat lung fibrosis model assessed as increase in cAMP level at 2.5 to 5 mg/kg, ip administered daily for 28 days by ELISA analysis; type: functional, organism-based; conditions: dose 2.5-5 mg/kg, time 28.0 day
Rattus norvegicus [22] = assay: Antifibrotic activity in bleomycin-induced Sprague-Dawley rat lung fibrosis model assessed as increase in cGMP level at 2.5 to 5 mg/kg, ip administered daily for 28 days by ELISA analysis; type: functional, organism-based; conditions: dose 2.5-5 mg/kg, time 28.0 day
HLF [23] = assay: Antifibrotic activity in TGF-beta induced HLF cell assessed as suppression of Col-I level incubated for 48 hrs by Western blot analysis; type: functional, cell-based; conditions: Homo sapiens, DDE = dose-dependent effect
HLF [24] = assay: Antifibrotic activity in TGF-beta induced HLF cell assessed as suppression of alpha-SMA level incubated for 48 hrs by Western blot analysis; type: functional, cell-based; conditions: Homo sapiens, DDE = dose-dependent effect
HLF [25] = assay: Antifibrotic activity in TGF-beta induced HLF cell assessed as suppression of alpha-SMA level at 10 uM incubated for 48 hrs by Western blot analysis; type: functional, cell-based; conditions: Homo sapiens
HLF [26] = assay: Antifibrotic activity in TGF-beta induced HLF cell assessed as decrease in FN level at 10 to 20 uM incubated for 48 hrs by DAPI staining based immunofluorescence microscopic analysis; type: functional; conditions: Homo sapiens, dose 10-20 µM
HLF [27] = assay: Antifibrotic activity in TGF-beta induced HLF cell assessed as decrease in alpha-SMA level at 10 to 20 uM incubated for 48 hrs by DAPI staining based immunofluorescence microscopic analysis; type: functional; conditions: Homo sapiens, dose 10-20 µM
Rattus norvegicus [28] = assay: Antifibrotic activity in bleomycin-induced Sprague-Dawley rat pulmonary fibrosis model assessed as smaller lung foci at 5 mg/kg, ip administered daily for 28 days by H&E staining based histopathological analysis; type: functional, organism-based; conditions: time 28.0 day
Cytochrome P450 2C19 = Cytochrome P450 2C19 (Homo sapiens, UniProt P33261); assay: Inhibition of CYP2C19 in human liver microsomes at 25 uM in the presence of NADPH; type: ADME, Microsome
[29] = Acute toxicity in overnight fasted KM mouse at 2000 mg/kg, po dosed daily for 14 days; type: organism-based; conditions: in vivo, 336 h, time 14 day
[30] = molecular target: cGMP-inhibited 3',5'-cyclic phosphodiesterase 3A (Homo sapiens, UniProt Q14432); assay: Inhibition of PDE3A (679 to 1087 residues) (unknown origin) expressed in Escherichia coli BL21 using [3H]-cAMP as substrate at 10000 nM measured for 15 mins by liquid scintillation counter method
[31] = molecular target: T1, High affinity cAMP-specific and IBMX-insensitive 3',5'-cyclic phosphodiesterase 8A; assay: Inhibition of PDE8A (480 to 820 residues) (unknown origin) expressed in Escherichia coli BL21 using [3H]-cAMP as substrate at 10000 nM measured for 15 mins by liquid scintillation counter method

T1 sequence (O60658 whole entry, the tested form may be a part): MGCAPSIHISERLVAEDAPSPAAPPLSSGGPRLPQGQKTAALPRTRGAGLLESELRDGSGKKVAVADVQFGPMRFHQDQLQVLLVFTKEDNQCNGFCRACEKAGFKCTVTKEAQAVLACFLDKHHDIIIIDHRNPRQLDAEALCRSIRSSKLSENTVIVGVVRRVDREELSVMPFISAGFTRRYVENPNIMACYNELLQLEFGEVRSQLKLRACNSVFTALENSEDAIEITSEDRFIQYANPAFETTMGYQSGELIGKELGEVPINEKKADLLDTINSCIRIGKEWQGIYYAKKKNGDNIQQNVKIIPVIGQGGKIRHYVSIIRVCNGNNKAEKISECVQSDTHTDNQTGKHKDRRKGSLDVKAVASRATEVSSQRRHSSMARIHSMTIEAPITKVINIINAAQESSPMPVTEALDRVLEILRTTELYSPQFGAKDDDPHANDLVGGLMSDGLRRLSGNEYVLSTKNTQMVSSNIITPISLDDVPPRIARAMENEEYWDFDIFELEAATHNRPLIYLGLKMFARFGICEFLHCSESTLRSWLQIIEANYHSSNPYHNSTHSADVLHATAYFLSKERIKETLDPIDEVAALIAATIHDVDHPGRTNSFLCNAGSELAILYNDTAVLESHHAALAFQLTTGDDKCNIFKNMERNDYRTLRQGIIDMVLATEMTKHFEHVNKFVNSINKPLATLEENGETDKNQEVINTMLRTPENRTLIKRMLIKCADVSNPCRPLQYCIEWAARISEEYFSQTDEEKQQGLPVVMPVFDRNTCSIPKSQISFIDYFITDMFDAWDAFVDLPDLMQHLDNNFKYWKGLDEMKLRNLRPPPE
Sequence of 3',5'-cyclic-AMP phosphodiesterase 4B (Q07343 whole entry, the tested form may be a part): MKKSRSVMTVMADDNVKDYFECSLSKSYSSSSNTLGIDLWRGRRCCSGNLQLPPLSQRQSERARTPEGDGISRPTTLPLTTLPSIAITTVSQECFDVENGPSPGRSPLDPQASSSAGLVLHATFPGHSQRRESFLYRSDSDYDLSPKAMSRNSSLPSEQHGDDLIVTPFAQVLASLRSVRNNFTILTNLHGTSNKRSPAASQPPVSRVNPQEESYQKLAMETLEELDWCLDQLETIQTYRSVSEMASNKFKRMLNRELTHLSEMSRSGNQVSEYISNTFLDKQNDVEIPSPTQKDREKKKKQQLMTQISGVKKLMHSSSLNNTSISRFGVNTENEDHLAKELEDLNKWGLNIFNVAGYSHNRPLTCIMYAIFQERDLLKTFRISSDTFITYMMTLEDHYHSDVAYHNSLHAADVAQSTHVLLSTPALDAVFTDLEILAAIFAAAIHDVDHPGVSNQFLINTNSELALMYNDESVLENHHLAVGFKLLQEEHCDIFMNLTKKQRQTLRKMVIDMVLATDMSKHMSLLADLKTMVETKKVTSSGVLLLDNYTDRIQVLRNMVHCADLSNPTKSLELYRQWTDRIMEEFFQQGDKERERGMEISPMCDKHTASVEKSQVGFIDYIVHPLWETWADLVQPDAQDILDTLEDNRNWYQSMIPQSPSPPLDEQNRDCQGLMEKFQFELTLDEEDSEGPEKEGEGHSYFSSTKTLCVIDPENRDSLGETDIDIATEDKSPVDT
Sequence of Cytochrome P450 2C19 (P33261 whole entry): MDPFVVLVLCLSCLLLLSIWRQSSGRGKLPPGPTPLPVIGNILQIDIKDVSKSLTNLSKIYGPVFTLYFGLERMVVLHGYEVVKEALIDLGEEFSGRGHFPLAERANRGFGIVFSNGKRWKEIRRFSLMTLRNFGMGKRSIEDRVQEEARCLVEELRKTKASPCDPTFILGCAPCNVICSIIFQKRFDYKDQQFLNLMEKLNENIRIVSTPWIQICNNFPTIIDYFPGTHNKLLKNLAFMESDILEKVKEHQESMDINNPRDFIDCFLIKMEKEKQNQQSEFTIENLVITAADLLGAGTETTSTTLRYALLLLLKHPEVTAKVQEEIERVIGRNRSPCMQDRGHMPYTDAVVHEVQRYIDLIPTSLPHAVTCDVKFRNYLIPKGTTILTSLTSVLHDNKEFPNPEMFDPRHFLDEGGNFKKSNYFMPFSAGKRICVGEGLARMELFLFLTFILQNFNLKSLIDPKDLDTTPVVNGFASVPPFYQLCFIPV
Sequence of cAMP and cAMP-inhibited cGMP 3',5'-cyclic phosphodiesterase 10A (Q9Y233 whole entry, the tested form may be a part): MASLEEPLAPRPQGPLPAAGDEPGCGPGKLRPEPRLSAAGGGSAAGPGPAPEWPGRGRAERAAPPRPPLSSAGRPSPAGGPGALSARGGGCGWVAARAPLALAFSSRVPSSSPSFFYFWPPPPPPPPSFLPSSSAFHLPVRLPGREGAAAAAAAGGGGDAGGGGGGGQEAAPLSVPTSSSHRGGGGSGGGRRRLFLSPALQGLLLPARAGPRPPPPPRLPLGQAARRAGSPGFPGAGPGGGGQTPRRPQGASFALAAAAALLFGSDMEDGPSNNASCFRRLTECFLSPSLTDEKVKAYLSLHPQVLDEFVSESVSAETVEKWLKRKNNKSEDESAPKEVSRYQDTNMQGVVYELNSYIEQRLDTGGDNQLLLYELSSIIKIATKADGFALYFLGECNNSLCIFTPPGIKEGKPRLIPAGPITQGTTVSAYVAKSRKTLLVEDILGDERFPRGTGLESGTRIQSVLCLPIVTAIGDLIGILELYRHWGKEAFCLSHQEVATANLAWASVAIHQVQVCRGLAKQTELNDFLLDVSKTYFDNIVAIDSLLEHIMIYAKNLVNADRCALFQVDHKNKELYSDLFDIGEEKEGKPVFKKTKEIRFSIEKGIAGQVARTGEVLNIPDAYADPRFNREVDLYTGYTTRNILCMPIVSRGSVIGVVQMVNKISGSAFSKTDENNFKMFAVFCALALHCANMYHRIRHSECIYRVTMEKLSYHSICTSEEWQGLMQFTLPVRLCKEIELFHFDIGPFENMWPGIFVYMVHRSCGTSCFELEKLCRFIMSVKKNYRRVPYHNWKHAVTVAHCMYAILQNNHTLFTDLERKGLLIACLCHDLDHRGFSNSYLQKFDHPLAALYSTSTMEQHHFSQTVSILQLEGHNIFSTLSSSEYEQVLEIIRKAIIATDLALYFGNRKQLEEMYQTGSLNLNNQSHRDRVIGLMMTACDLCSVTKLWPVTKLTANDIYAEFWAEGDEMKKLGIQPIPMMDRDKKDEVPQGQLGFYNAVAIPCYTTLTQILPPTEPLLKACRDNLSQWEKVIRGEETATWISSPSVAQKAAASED
Sequence of cGMP-inhibited 3',5'-cyclic phosphodiesterase 3A (Q14432 whole entry, the tested form may be a part): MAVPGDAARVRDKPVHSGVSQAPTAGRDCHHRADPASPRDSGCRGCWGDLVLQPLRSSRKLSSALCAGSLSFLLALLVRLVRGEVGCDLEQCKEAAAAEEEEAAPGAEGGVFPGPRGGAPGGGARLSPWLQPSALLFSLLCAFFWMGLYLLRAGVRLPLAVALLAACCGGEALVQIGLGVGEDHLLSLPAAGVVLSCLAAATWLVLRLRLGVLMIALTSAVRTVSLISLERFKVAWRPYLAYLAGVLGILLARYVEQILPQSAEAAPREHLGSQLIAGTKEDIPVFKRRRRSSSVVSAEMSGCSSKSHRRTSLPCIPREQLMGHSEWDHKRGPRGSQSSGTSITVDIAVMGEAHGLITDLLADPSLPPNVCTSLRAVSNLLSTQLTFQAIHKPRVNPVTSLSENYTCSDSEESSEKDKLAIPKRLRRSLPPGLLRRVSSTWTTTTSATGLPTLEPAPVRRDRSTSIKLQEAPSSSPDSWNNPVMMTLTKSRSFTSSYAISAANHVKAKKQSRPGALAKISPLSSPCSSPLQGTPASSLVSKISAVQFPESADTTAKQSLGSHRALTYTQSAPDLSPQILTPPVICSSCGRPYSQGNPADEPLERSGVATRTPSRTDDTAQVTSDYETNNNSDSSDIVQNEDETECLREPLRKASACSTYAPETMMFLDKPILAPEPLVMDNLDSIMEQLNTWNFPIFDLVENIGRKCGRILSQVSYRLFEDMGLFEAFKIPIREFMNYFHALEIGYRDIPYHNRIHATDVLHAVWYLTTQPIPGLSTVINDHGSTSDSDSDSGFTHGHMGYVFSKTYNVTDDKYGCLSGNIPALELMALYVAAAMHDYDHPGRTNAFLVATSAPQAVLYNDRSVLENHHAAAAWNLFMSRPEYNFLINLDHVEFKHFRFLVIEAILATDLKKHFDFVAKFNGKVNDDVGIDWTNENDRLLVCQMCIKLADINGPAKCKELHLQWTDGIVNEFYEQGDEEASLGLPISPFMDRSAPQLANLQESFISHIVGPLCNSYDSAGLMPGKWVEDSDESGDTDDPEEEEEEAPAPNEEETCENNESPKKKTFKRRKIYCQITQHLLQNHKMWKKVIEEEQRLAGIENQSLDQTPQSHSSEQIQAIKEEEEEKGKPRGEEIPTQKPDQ
Sequence of High affinity 3',5'-cyclic-AMP phosphodiesterase 7A (Q13946 whole entry, the tested form may be a part): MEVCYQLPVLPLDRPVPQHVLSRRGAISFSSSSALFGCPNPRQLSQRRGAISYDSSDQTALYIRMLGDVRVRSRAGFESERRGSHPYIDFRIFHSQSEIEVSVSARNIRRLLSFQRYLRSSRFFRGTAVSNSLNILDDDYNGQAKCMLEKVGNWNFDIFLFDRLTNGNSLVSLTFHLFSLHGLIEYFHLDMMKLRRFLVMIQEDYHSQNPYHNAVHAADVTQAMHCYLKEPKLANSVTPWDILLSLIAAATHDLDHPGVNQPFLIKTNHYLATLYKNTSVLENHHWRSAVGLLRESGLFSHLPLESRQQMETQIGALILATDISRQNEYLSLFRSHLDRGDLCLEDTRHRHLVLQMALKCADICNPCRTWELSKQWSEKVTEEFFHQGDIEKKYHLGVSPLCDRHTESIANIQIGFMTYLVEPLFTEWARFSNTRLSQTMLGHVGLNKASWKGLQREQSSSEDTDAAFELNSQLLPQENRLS

## CC1=C(C(=O)O[C@H](C)c2ccccc2)C(c2ccc3c(cnn3C)c2)C(C(=O)O[C@H](C)c2ccccc2)=C(C)N1
Rattus norvegicus [1]
  Activity: Active
Rattus norvegicus [2]
  Activity: Active
[3]
  pIC50: 6.45
[4]
  pIC50: 5.29
[5]
  pIC50: 6.21
[6]
  pIC50: 5.74
[7]
  pIC50: 5.85
[8]
  pIC50: < 5.00
[9]
  pIC50: 5.88
[10]
  AUC(0-t): 4560 ng·h/mL
[11]
  AUC(0-inf): 4590 ng·h/mL
[12]
  Vd: 3.81 L/kg
Rattus norvegicus [13]
  Activity: Active
Rattus norvegicus [14]
  Activity: Active
Rattus norvegicus [15]
  Activity: Active
Rattus norvegicus [16]
  Activity: Active
Rattus norvegicus [17]
  Activity: Active
Rattus norvegicus [18]
  Activity: Active
Rattus norvegicus [19]
  Activity: Active
Rattus norvegicus [20]
  Activity: Active
Rattus norvegicus [21]
  Activity: Active
Rattus norvegicus [22]
  Activity: Active
HLF [23]
  Activity: Dde
HLF [24]
  Activity: Dde
HLF [25]
  Activity: Active
HLF [26]
  Activity: Active
HLF [27]
  Activity: Active
Rattus norvegicus [28]
  Activity: Active
Cytochrome P450 2C19
  pIC50: 5.41
[29]
  Activity: Non-Toxic
[30]
  inhibition: < 50%
[31]
  inhibition: < 50%
